Measurements: patent publication US5112806A, “Antibiotic, mersacidin, a process for the preparation thereof and the use thereof as a pharmaceutical” (Hoechst Aktiengesellschaft, priority 1988, dated 1992)

Columns and labels:
S. aureus SG 511 [1] = assay: In vivo activity against S. aureus SG 511 infection in mice; conditions: S. aureus SG 511, 1.75 × 10^9 CFU/mouse
Procedure: On subcutaneous administration in a dose of 9.37 and 25.00 mg/kg to laboratory mice infected experimentally with Staphylococcus aureus SG 511 and S. aureus 710 (resistant to methicillin), […].
In vivo activity of mersacidin against S. aureus SG 511
infection in mice compared with vancomycin.
Inoculation medium used: 1.75 × 10^9 CFU/mouse

S. aureus E 710 (MRSA) = assay: In vivo activity against S. aureus E 710 (MRSA) in mice; conditions: S. aureus E 710 (MRSA), 5 × 10^9 CFU/mouse (1 MLD)
Procedure: On subcutaneous administration in a dose of 9.37 and 25.00 mg/kg to laboratory mice infected experimentally with Staphylococcus aureus SG 511 and S. aureus 710 (resistant to methicillin), […]. […]

S. aureus SG 511 [2] = assay: In vivo activity against S. aureus SG 511 abscess in rats; conditions: infecting dose 2 × 10^-9 CFU in 5% mucin under the skin, 50 mg/kg × 7 days
Procedure: In vivo activity of mersacidin against S. aureus SG 511 abscess in rats, compared with vancomycin.
Infecting dose : […] in 5% mucin, injected under the skin.
Treatment: 50 mg/kg × 7 days

S. aureus SG 511 [3] = assay: In vivo activity against S. aureus SG 511 infection in mice; conditions: mice, S. aureus SG 511, 1.75 × 10^9 CFU/mouse

Compound: CN[C@H](CC(C)C)C(=O)N[C@H]1C(=O)N[C@@H](CC(N)=O)C(=O)N[C@H]2C(=O)N[C@H]3C(=O)N[C@H](C(=O)N[C@H](C(=O)O)c4cc(O)cc(O)c4-c4cc3ccc4O)[C@H](O)c3ccc(c(Cl)c3)Oc3cc2cc(c3O[C@@H]2O[C@H](CO)[C@@H](O)[C@H](O)[C@H]2O[C@H]2C[C@](C)(N)[C@H](O)[C@H](C)O2)Oc2ccc(cc2Cl)[C@H]1O [Vancomycin, reference compound]
- Number of mice treated/cured (S. aureus SG 511 [1]; 9.37 mg/kg × 3, s.c.): 48/53
- percentage rate of cure (S. aureus SG 511 [1]; 9.37 mg/kg × 3, s.c.): 85%
- Approx. ED50 (S. aureus SG 511 [1]; s.c.): ~7.20 mg/kg × 3
- Approx. ED90 (S. aureus SG 511 [1]; s.c.): ~9.37 mg/kg × 3
- Number of mice treated/cured (S. aureus E 710 (MRSA); 6.25 mg/kg × 3, s.c.): 0/11
- percentage rate of cure (S. aureus E 710 (MRSA); 6.25 mg/kg × 3, s.c.): 0%
- Number of mice treated/cured (S. aureus E 710 (MRSA); 12.50 mg/kg × 3, s.c.): 3/11
- percentage rate of cure (S. aureus E 710 (MRSA); 12.50 mg/kg × 3, s.c.): 27%
- Number of mice treated/cured (S. aureus E 710 (MRSA); 25.00 mg/kg × 3, s.c.): 14/21
- percentage rate of cure (S. aureus E 710 (MRSA); 25.00 mg/kg × 3, s.c.): 67%
- Number of mice treated/cured (S. aureus E 710 (MRSA); 37.00 mg/kg × 3, s.c.): 6/6
- percentage rate of cure (S. aureus E 710 (MRSA); 37.00 mg/kg × 3, s.c.): 100%
- Approx. ED50 (S. aureus E 710 (MRSA); s.c.): ~18.94 mg/kg × 3
- Approx. ED90 (S. aureus E 710 (MRSA); s.c.): ~32.01 mg/kg × 3
- reduces bacterial counts by (S. aureus SG 511 [2]): 0.79 log10 CFU/ml
- Number of mice treated/cured (S. aureus SG 511 [3]; 3.12 mg/kg × 3, s.c.): 2/41
- percentage rate of cure (S. aureus SG 511 [3]; 3.12 mg/kg × 3, s.c.): 5%
- Number of mice treated/cured (S. aureus SG 511 [3]; 6.25 mg/kg × 3, s.c.): 13/44
- percentage rate of cure (S. aureus SG 511 [3]; 6.25 mg/kg × 3, s.c.): 29%
- Number of mice treated/cured (S. aureus SG 511 [3]; 12.5 mg/kg × 3, s.c.): 59/61
- percentage rate of cure (S. aureus SG 511 [3]; 12.5 mg/kg × 3, s.c.): 97%
- Number of mice treated/cured (S. aureus SG 511 [3]; 18.75 mg/kg × 3, s.c.): 71/71
- percentage rate of cure (S. aureus SG 511 [3]; 18.75 mg/kg × 3, s.c.): 100%
